Laboratory results published in EP0705591A2, “Cyclic amidocarboxy surfactants, synthesis and use thereof” (STEPAN COMPANY, priority 1989, dated 1991).

Experiments:
[1] = Emulsion stability test (modified, xylene/water); type: physicochemical; settings: 0.5g surfactant, 90 mL deionized water, 5.0 mL xylene; second rocking sequence
Protocol: In order to obtain reproducible results, an emulsion stability test, modified from the standard used in the art for testing surfactants was developed. In the modified procedure, 0.5g of a select surfactant (instead of 1g) was dissolved in 90 mL of deionized water in a graduated cylinder containing 5.0 mL of xylene, which was then sealed and rocked between a vertical/horizontal position for 30 cycles, allowed to settle for about 5 to 10 minutes and subjected to the same rocking cycle with the results of the second sequence recorded (instead of the first sequence).

[2] = Thermal stability followed by IR spectroscopy; type: physicochemical; settings: for Conversion to the N-dodecylphthalimide: neat (100% actives), about 100°C
Protocol: Thermal stability studies were conducted with neat (100% actives) sample of ammonium N-dodecylphthalamate mulled on sodium chloride plates. […]

[3] = Crude oil emulsification/dispersion and pH reversibility; type: physicochemical
Protocol: Sodium N-dodecylphthalamate, sodium N-cocophthalamate, sodium N-isodecyloxypropylphthalamate and sodium N-isododecyloxypropylphthalamate, along with a control (tap water only), were evaluated as emulsifying and/or dispersing and/or suspending agents for a given, heavy (viscous) crude petroleum oil (Dome crude oil, David Field, California) in different water samples, one having a hardness (expressed as CaCO₃) of 150 ppm, another having a hardness of 500 ppm, along with a synthetic sea water (NaCl-containing tap water, 150 ppm). In addition, various admixtures of sodium N-dodecylphthalamate and lauryl amine oxide were similarly evaluated with the above petroleum crude oil and synthetic sea water for synergistic emulsification characteristics.
The respective surfactants were prepared as aqueous solutions with the various water samples at a concentration of about 0.1 percent actives. Measured samples (50 mL) of the surfactant solutions were placed in 100 mL graduated cylinders, 2 drops of the crude oil added, the cylinders stoppered and relatively vigorously shaken manually for about 10 to 20 seconds. The degree of emulsification/dispersion, suspension was noted and recorded The data is set for in Table VIII below.
At relatively high pH values (i.e., above about 7) emulsification of the crude oil readily occurred and at relatively how pH values (i.e., below about 5) de-emulsification of the crude oil readily occurred. A control was prepared from a sample of the 150 ppm hardness water without surfactant but with 2 drops of the above crude oil.
The foregoing cycle between relatively high pH and relatively low pH was repeated an additional three times, with essentially identical emulsification/de-emulsification results. During a low (4.9) pH de-emulsification cycle, separated crude oil was removed, by decantation and a pH of the remaining (used) phthalamic solution was adjusted to about 13.5 and fresh crude oil added. […] Upon addition of additional fresh sodium N-dodecylphthalamate, the emulsion re-formed.

[4] = Bleach (chlorine ion) stability; type: physicochemical; settings: for formulation clarity / foaming characteristics: 2.0% actives surfactant, 4.0% actives NaOCl; for formulation clarity: 1.0% NaOH, 90°C water bath about 5 hours; for foaming characteristics: after about 5 hours at 90°C
From the text: Select N-alkyl and N,N-dialkyl phthalamates were incorporated into a standard test formulation containing a common bleach. […] The standard formulation comprised 4.0% actives of NaOCl; 0.25% actives NaCl; 1.0% actives NaOH (50%); 2.0% actives surfactant and Q.S. 100% deionized water. 1. DOWFAX^R-2A1 is Dow Chemical Company's registered trademark for sodium branched C₁₂ diphenyloxide disulfonate. 2. MAKON^R- 10 is Stepan Company's registered trademark for a nonylphenol polyethoxylate.
The various formulations were individually placed in tightly capped jars and subjected to a 90°C water bath for about 5 hours and then observed for formulation clarity and foaming characteristics. Each sample was run in duplicate.

[5] = Emulsification in foodstuffs; settings: about 1% by weight, substituted for egg yolk
Protocol: Sodium N-octadecylphthalamate was added to a standard cup-cake recipe at actives levels of 0% (control), 1%, 2%, 3%, 4%, and 5%. The N-octadecylphthalamate was admixed into a typical batter as a partial replacement for the shortening, margarine or butter called for in the recipe, baked at a uniform temperature (about 176°C) and time (about 25 minutes). […] A mayonnaise formulation containing about 1% by weight, based on a 100% total weight of formulation, of sodium N-octadecylphthalamate was prepared, with the N-octadecylphthalamate being substituted for egg yolk in a given recipe. […] A dog food was prepared by admixing about 200g of "Generic" beef-flavored dog food with 3g of 100% actives sodium N-octadecylphthalamate. Samples of this dog food were exposed to various temperatures (i.e., 0°C, 43°C and 50°C).

[6] = Cold storage and freeze-thaw stability of solutions; type: physicochemical; set-up: key: P - PASS; settings: 1% actives; for STABILITY FREEZE THAW: 3 freezing/thawing cycles; for STABILITY COLD STORAGE: 24 hours at 4 °C
Protocol: (§1) Sodium N-octadecylphthalamate, 1% actives, was evaluated for solubility in various solvents and under cold storage (4°C) and freeze-thaw conditions.

[7] = Solubility in various solvents (vehicles); type: physicochemical; set-up: key: I - INSOLUBLE; S - SOLUBLE; settings: 1% actives
Protocol: as §1

[8] = Caustic stability (reflux with NaOH); type: physicochemical; settings: for ES*(mL/sec) (Emulsion Stability): reflux with an equivalent of NaOH
Protocol: In order to determine caustic stability of the phthalamates, 5g of octylphthalamic acid was dissolved in 450 mL of water containing an equivalent of NaOH. This mixture was heated at reflux for about 24 hours and five separate 90mL samples were withdrawn at 0 hours, 1 hour, 2 hours, 16.5 hours and 23.7 hours. The resulting individual samples were acidified and the sodium N-octylphthalamic acid was isolated and analyzed (filtered, dried, weighted and m.p. and neutralization equivalents were obtained).

[9] = Particulate material suspension; type: physicochemical
Protocol: In this test, potassium N-octadecylphthalamate was utilized as a suspending agent in a typical shampoo base with known particulate anti-dandruff materials, zinc pyrithione and coal tar. Particulate (about 500 mesh) zinc pyrithione and particulate (about 350 to 400 mesh) coal tar were suspended in shampoo base formulations and stored at room temperature, at about 1.6°C and at about 43.3°C.
About 2 percent potassium octadecylphthalamate was incorporated with about 50 to 70 percent particulate coal (average size about 200 mesh) and about 30 to 50 percent water at ambient temperature.

Ross-Miles Foaming test = type: physicochemical; settings: tap water; active level of 0.1%
From the text: (§2) Standard Ross-Miles Foaming and Draves Wetting tests were preformed on various fatty phthalamates with the results set forth in Table 1 below. In all tests, an active level of 0.1% was utilized.

Draves Wetting test = type: physicochemical; settings: tap water; active level of 0.1%
From the text: as §2

[10] = 0.1% actives in 50 mL of 150 ppm hardness water

CCCCCCCCCCNC(=O)c1ccccc1C(=O)[O-].[Na+] [Sodium N-decylphthalamate]
Emulsion Break Rate [1]: 0.034 mL/s

CCCCCCCCCCCCNC(=O)c1ccccc1C(=O)[O-].[Na+] [Sodium N-dodecylphthalamate, Sodium N-Dodecylphthalamate]
thermal stability ([2]; 120°C): stabile
Emulsion Break Rate [1]: 0.068 mL/s
pH values at which de-emulsification of the crude oil readily occurred [3, 10]: below 5
pH values at which emulsification of the crude oil readily occurred [3, 10]: above 7
emulsification of crude oil ([3]; 0.1% actives, 150 ppm hardness water, pH of 8.5): the oil readily emulsified
emulsification of crude oil ([3]; pH dropped to about 3.5): the emulsion broke
emulsification of crude oil ([3]; pH dropped to about 5.2): a slight flocculation noted
emulsification of crude oil ([3]; pH dropped to about 7.0): without noticeable de-emulsification
emulsification of crude oil ([3]; pH dropped with 1N HCl to about 2.6): the emulsion broke, almost instantly, with floccing
emulsification of crude oil ([3]; pH raised with 1N NaOH to about 13.4): an emulsified solution was noted
emulsification of crude oil ([3]; used solution, pH about 13.5, fresh crude oil added): very stabile emulsion was quickly formed
formulation clarity [4]: initially clear yellow but became cloudy and exhibited phase separation

CCCCCCCCCCCCCCCCNC(=O)c1ccccc1C(=O)[O-].[Na+] [Sodium N-hexadecylphthalamate]
Emulsion Break Rate [1]: 0.102 mL/s

CCCCCCCCCCCCCCCCCCNC(=O)c1ccccc1C(=O)[O-].[Na+] [Sodium N-octadecylphthalamate, Sodium N-Octadecylphthalamate]
imidation ([2]; 3.5 hours at 150°C): only a very small degree of imidation
imidation ([2]; 64 hours at 150°C): significant formation of N-octadecylphthalimide
mayonnaise emulsion stability [5]: excellent stability
STABILITY FREEZE THAW ([6]; vehicle AMMONYX^R LO): P
STABILITY COLD STORAGE ([6]; vehicle AMMONYX^R LO): P
STABILITY FREEZE THAW ([6]; vehicle AMPHOSOL^R): P
STABILITY COLD STORAGE ([6]; vehicle AMPHOSOL^R): P
STABILITY FREEZE THAW ([6]; vehicle MAKON^R 10): P
STABILITY COLD STORAGE ([6]; vehicle MAKON^R 10): P
STABILITY FREEZE THAW ([6]; vehicle NINOL^R 40-CO): P
STABILITY COLD STORAGE ([6]; vehicle NINOL^R 40-CO): P
APPEARANCE 24 HOURS @ RT^0 AFTER HEAT ([7]; vehicle AMMONYX^R LO): S
APPEARANCE 25^0C ([7]; vehicle AMMONYX^R LO): S
APPEARANCE 50^0C ([7]; vehicle AMMONYX^R LO): S
APPEARANCE 24 HOURS @ RT^0 AFTER HEAT ([7]; vehicle AMPHOSOL^R): S
APPEARANCE 25^0C ([7]; vehicle AMPHOSOL^R): I
APPEARANCE 50^0C ([7]; vehicle AMPHOSOL^R): S
APPEARANCE 24 HOURS @ RT^0 AFTER HEAT ([7]; vehicle MAKON^R 10): S
APPEARANCE 25^0C ([7]; vehicle MAKON^R 10): I
APPEARANCE 50^0C ([7]; vehicle MAKON^R 10): I
APPEARANCE 24 HOURS @ RT^0 AFTER HEAT ([7]; vehicle NINOL^R 40-CO): S
APPEARANCE 25^0C ([7]; vehicle NINOL^R 40-CO): I
APPEARANCE 50^0C ([7]; vehicle NINOL^R 40-CO): S
APPEARANCE 24 HOURS @ RT^0 AFTER HEAT ([7]; vehicle STEPANATE^R): I
APPEARANCE 25^0C ([7]; vehicle STEPANATE^R): I
APPEARANCE 50^0C ([7]; vehicle STEPANATE^R): I

CCCCCCCCNC(=O)c1ccccc1C(=O)[O-].[Na+] [Sodium N-octylphthalamate]
Emulsion Break Rate [1]: 0.111 mL/s
pH at which stable ([8]; caustic environment, reflux about 24 hours): at least 10
ES*(mL/sec) (Emulsion Stability) ([8]; sample at 0 hr): 0.0252 mL/s
ES*(mL/sec) (Emulsion Stability) ([8]; sample at 1 hr): 0.0325 mL/s
ES*(mL/sec) (Emulsion Stability) ([8]; sample at 2 hr): 0.0400 mL/s
ES*(mL/sec) (Emulsion Stability) ([8]; sample at 16.5 hr): 0.0690 mL/s
ES*(mL/sec) (Emulsion Stability) ([8]; sample at 23.7 hr): 0.108 mL/s

CCCCCCCCCCCCCCNC(=O)c1ccccc1C(=O)[O-].[Na+] [Sodium N-tetradecylphthalamate]
Emulsion Break Rate [1]: 0.085 mL/s

CCCCCCCCCCNC(=O)c1ccccc1C(=O)O.OCCN(CCO)CCO [Triethanolammonium N-decylphthalamate]
Emulsion Break Rate [1]: 0.046 mL/s

CCCCCCCCCCCCNC(=O)c1ccccc1C(=O)O.OCCN(CCO)CCO [Triethanolammonium N-dodeylphthalamate]
Emulsion Break Rate [1]: 0.039 mL/s

CCCCCCCCNC(=O)c1ccccc1C(=O)O.OCCN(CCO)CCO [Triethanolammonium N-octylphthalamate]
Emulsion Break Rate [1]: 0.043 mL/s

CCCCCCCCCCCCNC(=O)c1ccccc1C(=O)O.N [ammonium N-dodecylphthalamate, Ammonium N-Dodecylphthalamate]
Conversion to the N-dodecylphthalimide ([2]; 10 minutes): very apparent
Conversion to the N-dodecylphthalimide ([2]; 20 minutes): almost total conversion

CCCCCCCCCCCCCCCCCCNC(=O)c1ccccc1C(=O)[O-].[K+] [potassium N-octadecylphthalamate]
suspension of particulate coal in water ([9]; about 2 percent with about 50 to 70 percent coal (about 200 mesh), ambient temperature): free flowing, substantially homogeneous suspension
stability of zinc pyrithione suspension in shampoo base ([9]; after 5 days at 43.3°C): phase separation
stability of coal tar suspension in shampoo base ([9]; after 5 days at room temperature, at 1.6°C and at 43.3°C): excellent stability

CCCCCCCCCCCCN(C)C(=O)c1ccccc1C(=O)[O-].[Na+] [sodium N-methyl-N-dodecylphthalamate, Sodium N-Dodecyl-N-methylphthalamate]
formulation clarity [4]: clear yellow throughout the test
foaming characteristics [4]: unstabile
bleach stability ([4]; conclusion from the 90°C bleach test): good bleach stability

CC(C)CCCCCCCCCOCCCNC(=O)c1ccccc1C(=O)[O-].[Na+] [sodium isododecyloxypropylphthalamate, Sodium N-Isododecyloxypropylphthalamate]
foam height (Ross-Miles Foaming test): 5.5 cm
wetting time (Draves Wetting test): 4.5 s

sodium N,N-dicocophthalamate
formulation clarity [4]: poor solubility, with phase separation
foaming characteristics [4]: no pre-bath or post-bath foam
